Assay [1] has as its system BV2 cells. Kind of assay: RT-qPCR of selected genes in BV2 cells with ITI-214, cyclase activators and PKA/PKG inhibitors. It counts as cell-based, mouse. Particulars: 10 μM forskolin, 5 μM DEANO or 100 nM ANP. The protocol: In a further experiment a group of genes is selected for further analysis by RT-qPCR. For comparison, genes are analyzed which have been implicated in the scientific literature in microglial and astrocyte activation, including genes in the complement pathway.
All sample values are normalized to an average of 3 reference genes and to vehicle control (ΔΔCt). The error bars represent the mean+/−SEM (n=4). From left to right, for each cytokine grouping, the bars indicate samples treated with: LPS, 0.1 μM 214+LPS, 0.4 μM 214+LPS, 1.1 μM 214+LPS, 3.3 μM 214+LPS, 10 μM 214+LPS, for each particular gene shown on the X-axis. Significant changes between LPS and 10 μM ITI-214+LPS (A) and Vehicle and 10 μM ITI-214 (B) are marked on the X-axis gene names and are calculated using a one-way ANOVA. * p<0.05, **p<0.01, ***p<0.001, ****p<0.0001.
In one particular experiment, BV2 cells are treated with 10 μM forskolin (FSK) to activate adenylyl cyclases, 5 μM DEANO to activate soluble guanylyl cyclase, or 100 nM atrial natriuretic peptide (ANP) to activate particulate guanylyl cyclase. […] Upon combining forskolin with ITI-214 some of the effects of ITI-214 inhibition can be increased. […] However, LIF reverts to LPS-level expression when forskolin is added.
Note that gene expression levels upon addition of PKA or PKG inhibitor to 10 μM ITI-214 are on the order of those relative to LPS treatment alone were reduced to levels equivalent to 3.3 μM ITI-214.

Assay [2] has as its system retinal ganglion cells. Kind of assay: Optic nerve injury (optic crush) model. Particulars: mice; intraocular injection after optic nerve injury; 14 days; FIG. 12. It counts as in vivo, mouse. How it is done:
A PDE1 inhibitory compound is tested in an optic nerve injury model (i.e., the “optic crush” model). The studies described below are carried out using the selective PDE1 inhibitor IC200041, which has the following structure:
In this model, optic nerve surgeries are carried out on male mice 8 wk of age (average body weight, 20-26 g) under general anesthesia, as described previously (Yin Y, et al., Oncomodulin links inflammation to optic nerve regeneration. Proc Natl Acad Sci USA. 2009; 106:19587-19592). Following nerve injury, 3 μl of fluid is removed from the eye and a solution containing the PDE1 inhibitory compound is injected intraocularly.
A total of 4 mouse retinas are treated with the PDE1 inhibitor, and phosphate buffered saline (PBS) is administered to a total of 10 mouse retinas as a control. Mice are typically euthanized with an overdose of anesthesia 14 days after optic nerve injury and are perfused with saline and 4% paraformaldehyde (PFA). These mice are 10 weeks old when killed. Optic nerves and eyes are dissected and postfixed in PFA. […] Axons are counted manually in at least 8 longitudinal sections per case at pre-specified distances from the injury site, and these numbers were converted into the number of regenerating axons at various distances.

Assay [3] concerns BV2 cells. Kind of assay: RNAseq analysis of LPS-stimulated BV2 cells, differentially expressed transcripts. Type of assay: cell-based, mouse. Particulars: for genes significantly affected by this compound but not the other (Compound 214 / Rolipram): LPS-stimulated BV2 cells. How it is done: (§1) The test compound is added first, the LPS is added one hour later, and the cells and/or media are harvested at five hours from commencement of the experiment.
RNASeq: Flashfreeze BV2cells, isolate RNA, prepare a library using polyA selection, and conduct 1×50 bp single read sequencing on the Illumina HiSeq 2500 in High Output mode (using V4 chemistry). Genes are mapped to reference genome (GRCm38) using CLC Genomics Server. Number of reads per sample average ˜17 million. Differential gene expression analysis is performed using DESeq2software (Bioconductor.org). Differentially expressed genes (p<0.01, Waldtest) are reported as log 2(fold change).

Assay [4] deals with inflammatory gene expression in mouse striatum. The assay is described as follows: Inflammatory gene expression in mouse striatum after LPS (Q-PCR). It counts as in vivo. Conditions: Striatum Mouse + LPS; initial results. How it is done:
(§2) RTqPCR: RNA from BV2 cells purified using RNeasyKit (Qiagen) and from mouse tissue using TRIzol (Ambion). TaqMan primer-probe assays from Thermo Fisher. mRNA levels for all conditions are normalized to GAPDH and to vehicle control (ΔΔCt). Data are analyzed statistically using one-way ANOVA with the Bonferroni post-test for multiple comparisons.
The results are based upon an evaluation of samples using Q-PCR.
Data from a further experiment measuring the effect of PDE1 inhibition on inflammatory gene expression in mouse striatum is depicted in FIG. 7. […] Striatal tissue is isolated and flash frozen, and RNA is extracted. Measurements from RT-qPCR are shown as log 2 fold change (2ΔΔCt). n=4 *p<0.05, **p<0.01, ***p<0.001, ****p<0.0001.
Data from yet another experiment measuring the effect of PDE1 inhibition on inflammatory gene expression in mouse striatum is depicted in FIG. 8. […] Striatal tissue is analyzed for mRNA levels of TNF, IL1β, Ccl2, and IL6. Expression levels are shown as change in Q-PCR signal from vehicle (ΔΔCt) and compared using an ANOVA. * p<0.05, **p<0.01, ***p<0.001.

Assay [5] concerns BV2 cells. The assay is described as follows: Quantitative PCR of inflammatory cytokine mRNA in LPS-treated BV2 cells. It counts as cell-based, mouse. The protocol:
Levels of IL1β are measured using quantitative PCR of IL1β mRNA. IL1β is considered a marker of inflammation. Results are depicted in FIG. 2 (RQ: relative quantification of changes in gene expression in treated versus control samples; ***p<0.01 vs control, √p<0.01 vs LPS alone; ANOVA with Newman-Keuls post-hoc test).
BV2 cells are pretreated with compound, ITI-214 or rolipram, a PDE4 inhibitor, then stimulated with 50 ng/ml LPS for 4 hours. Expression levels of TNF, IL1β, Ccl2, and IL6 are measured. Normalized mRNA levels are shown as change from vehicle (ΔΔCt) and compared using a one-way ANOVA. […] The mRNA transcripts for TNF, IL1β, and Ccl2—three of the four cytokines studied in vivo—were elevated in BV2 cells treated with 50 ng/ml LPS.
as §1, §2

Assay [6] deals with HL60 cells. Kind of assay: Total cGMP levels in PMA-differentiated HL60 cells with ANP and ionomycin (competitive ELISA). It counts as cell-based, human. How it is done: We have shown that there is a synergistic effect between ANP and PDE1 inhibition. An immortalized human pro-myeloid cell line (HL60 from ATCC) is grown, differentiated and harvested as described in Bender, A T, and Beavo, J A, 2006, PNAS 103, 460-465. The cells are grown in HEPES buffered RPMI 1640 medium with penicillin, streptomycin, and 10% fetal bovine serum. Phorbol-12-myristate-13-acetate (PMA), at 100 nM for 3 days, is used to differentiate the HL60 cells into macrophage-like cells. Following differentiation, the cells are incubated with a PDE1 inhibitor or vehicle (DMSO) beginning at time 0. At 40 minutes, 5 μM ionomycin (a calcium ionophore) is added. At 50 minutes, 100 nM ANP was added. At 60 minutes, the cells are harvested. Total cGMP levels are measured using a competitive ELISA (Bender and Beavo, 2006).
Background: ELISA stands for enzyme-linked immunosorbent assay.

[7] abbreviates: BV2 cells, Compound 214 at 10 μM, FIG. 4a.

With `CCN(CC)/[N+]([O-])=N/[O-].[Na+]` [DEANO, reference compound], the “effect of the activator alone on LPS induction of the selected genes” value in assay [1] is recorded as “little or no effect”.
`CN1C(=O)c2c(nn(Cc3ccc(-c4ccccn4)cc3)c2Nc2ccccc2)N2C1=N[C@@H]1CCC[C@@H]12` [IC200041]: in assay [2], the “survival of retinal ganglion cells compared with the PBS control” value is “highly effective”.
`CC[C@H](C)[C@@H]1NC(=O)[C@H](CCCNC(=N)N)NC(=O)[C@H](CC(=O)O)NC(=O)[C@H](CCSC)NC(=O)[C@H](CCCNC(=N)N)NC(=O)CNC(=O)CNC(=O)[C@H](Cc2ccccc2)NC(=O)[C@@H](NC(=O)[C@H](CO)NC(=O)[C@H](CO)NC(=O)[C@H](CCCNC(=N)N)NC(=O)[C@H](CCCNC(=N)N)NC(=O)[C@H](CC(C)C)NC(=O)[C@@H](N)CO)CSSC[C@@H](C(=O)N[C@@H](CC(N)=O)C(=O)N[C@@H](CO)C(=O)N[C@@H](Cc2ccccc2)C(=O)N[C@@H](CCCNC(=N)N)C(=O)N[C@@H](Cc2ccc(O)cc2)C(=O)O)NC(=O)CNC(=O)[C@H](CC(C)C)NC(=O)CNC(=O)[C@H](CO)NC(=O)[C@H](CCC(N)=O)NC(=O)[C@H](C)NC(=O)CNC1=O` [atrial natriuretic peptide, reference compound]: the “effect of the activator alone on LPS induction of the selected genes” value in assay [1] was “little or no effect”.
As to `COc1ccc(C2CNC(=O)C2)cc1OC1CCCC1` (stereo not shown) [rolipram, reference compound], in assay [3] (BV2 cells, RNAseq), the “mRNA transcripts decreased in the presence of LPS + compound vs. LPS alone” value worked out at 209 transcripts and the “transcripts elevated in the presence of LPS + compound vs. LPS alone” value amounted to 156 transcripts. For the same compound, in assay [3] (further RNASeq analysis), the “genes significantly affected by this compound but not the other (Compound 214 / Rolipram)” value was 251 genes. Besides, the “genes significantly affected by this compound but not the other (Compound 214 / Rolipram)” value in assay [3] (still a further experiment) was 1463 genes. Moreover, in assay [4], the “Chemokine (C-C) motif Ligand 2 expression (Q-PCR)” value is reported as “Down”, the “Interleukin 1 beta expression (Q-PCR)” value is listed as “UP-UP”, the “Interleukin 6 expression (Q-PCR)” value is reported as “UP-UP” and the “Oncostatin M expression (Q-PCR)” value is listed as “Down”. Besides, in assay [4], the “Tumor necrosis factor expression (Q-PCR)” value is reported as “Down”. Also, in assay [5] (BV2 + LPS, initial results), the “Chemokine (C-C) motif Ligand 2 expression (Q-PCR)” value is recorded as “Down”, the “Interleukin 1 beta expression (Q-PCR)” value was “UP UP” and the “Tumor necrosis factor expression (Q-PCR)” value is on record as “Down”. In assay [5] (setting [7]), the “LPS-induced increase in expression of Ccl2” value was “reducing”, the “LPS-induced increase in expression of IL1β” value is reported as “increasing” and the “LPS-induced increase in expression of TNFα” value is on record as “reducing”.
Turning to `CN1C(=O)c2c(nn(Cc3ccc(C(F)(F)F)cc3)c2Nc2ccccc2)N2C1=N[C@@H]1CCC[C@@H]12` [Example 20 of U.S. Pat. No. 8,273,750, (6aR,9aS)-3-(phenylamino)-5,6a,7,8,9,9a-hexahydro-5-methyl-2-(4-(trifluoromethyl)-benzyl)-cyclopent[4,5]imidazo[1,2-a]pyrazolo[4,3-e]pyrimidin-4(2H)-one], the “cGMP level, ANP in combination with the PDE1 inhibitor versus either alone” value in assay [6] (100 nM ANP + 100 nM PDE1 inhibitor) is “greater”. Also, in assay [6] (PDE1 inhibitor + sub-optimal ANP, ionomycin 5 μM), the “decreasing cGMP signal caused by activation of PDE1 by ionomycin” value is “synergistically prevented”. The “cGMP level, co-treatment with ANP and the PDE1 inhibitor versus ANP and SCH 51866” value in assay [6] (SCH 51866 used at 5 μM) is listed as “much greater”. The “effect of ionomycin on cGMP when combined with ANP and the PDE1 inhibitor” value in assay [6] (ionomycin 5 μM) is reported as “only a weak cGMP lowering effect”.

(Values after patent publication US11291666B2, “Uses” (INTRA-CELLULAR THERAPIES, INC., priority 2016, dated 2022).)
